What all share (assay type): cell-based
Assay [1] concerns the target androgen receptor mutant W741C (Homo sapiens (Human), UniProt P10275, W742C). Briefly: Transactivation assay for the androgen receptor mutant W741C (transfected PC-3 cells). The conditions noted are these: in the presence of 1×10^−10 M R1881, 24 hours. The protocol:
PC-3 cells (Kaighn et al., Invest. Urol. 17: 16-23, 1979) were plated out at a density of 10000 cells per well of a 96-well cell culture plate in RMPI 1640 medium (F1235, Biochrom AG, Berlin, Germany), which contained activated charcoal-treated calf serum (FCS Serum Gold, PAA Laboratories) at a concentration of 5% (v/v). On the next day the cells were transiently transfected with the pSG5-vector (#216201 Stratagene), which contained the sequence of the androgen receptor mutant W741C (Haapala et al., Lab Invest. 81(12): 1647-51, 2001), and with a reporter plasmid based on pGL4.14 (#E6691, Promega) with the luciferase-gene (from Photinus pyralis) under the control of the MMTV promoter (Cato et al., EMBO J. 6: 363-8, 1987). The cells were treated with the test substances in concentrations from 1×10^−8 to 1×10^−10 M in the presence of 1×10^−10 M R1881 and were incubated overnight at 37° C. and 5% CO2. After 24 hours, 100 μl of Steady Glo Lysis and Detection reagent (E2550, Promega) was added per well and the luminescence was read in a Victor3 Luminometer (PerkinElmer) for 1 second per well. The luminescence values obtained were normalized, wherein 100% corresponded to the effect of the unstimulated control (without R1881), and 0% corresponded to the effect of the stimulated control (R1881 plus DMSO instead of test substance). The IC50 value was determined by regression analysis based on a four-parameter equation (minimum, maximum, IC50, Hill coefficient; Y=Max+(Min−Max)/(1+(X/IC50)^Hill)).

The target of assay [2] is androgen receptor mutant E709Y (Homo sapiens (Human), UniProt P10275, E710Y). Briefly: Transactivation assay for the androgen receptor mutant E709Y (transfected PC-3 cells). As to conditions: in the presence of 1×10^−10 M R1881, 24 hours. The protocol: PC-3 cells (Kaighn et al., Invest. Urol. 17: 16-23, 1979) were plated out at a density of 10000 cells per well of a 96-well cell culture plate in RMPI 1640 medium (F1235, Biochrom AG Berlin, Germany) that contained activated charcoal-treated calf serum (FCS Serum Gold, PAA Laboratories) at a concentration of 5% (v/v). On the next day the cells were transiently transfected with the pSG5-vector (#216201 Stratagene), which contained the sequence of the androgen receptor mutant E709Y (Georget et al., Mol. Endocrinol. 20(4): 724-734, 2006), and with the MMTV-luciferase plasmid (see above, transactivation assay for the androgen receptor mutant W741C). The cells were treated with the test substances in concentrations from 1×10^−8 to 1×10^−10 M in the presence of 1×10^−10 M R1881 and were incubated overnight at 37° C. and 5% CO2. After 24 hours, 100 μl of Steady Glo Lysis and Detection reagent (E2550, Promega) was added per well and the luminescence was read in a Victor3 Luminometer (PerkinElmer) for 1 second per well. The luminescence values obtained were normalized, wherein 100% corresponded to the effect of the unstimulated control (without R1881), and 0% corresponded to the effect of the stimulated control (R1881 plus DMSO instead of test substance). The IC50 value was determined by regression analysis based on a four-parameter equation (minimum, maximum, IC50, Hill coefficient; Y=Max+(Min−Max)/(1+(X/IC50)^Hill)).

For another assay, the system named is LAPC-4 cells. Briefly: Proliferation assay with LAPC-4 cells. The conditions noted are these: Homo sapiens, LAPC4, 168 h; in the presence of 1×10^−9 M R1881, seven days, AlamarBlue; read-out: IC50 LAPC-4 cell proliferation. The protocol: LAPC-4 cells (Klein et al., Nat Med. 3(4): 402-8, 1997) were plated out at a density of 4000 cells per well of a 96-well cell culture plate in RMPI 1640 medium (F1275, Biochrom AG) that contained activated charcoal-treated calf serum (FCS Serum Gold, PAA Laboratories) at a concentration of 10% (v/v). On the next day the cells were treated with the test substances in concentrations from 1×10^−8 to 1×10^−10 M in the presence of 1×10^−9 M R1881. Cell proliferation was determined seven days later after incubation for 2 hours with AlamarBlue (DAL1100, Invitrogen) (Nakayama et al., J Immunol Methods, 204(2): 205-8, 1997). The fluorescence values obtained were normalized, wherein 100% corresponded to the effect of the unstimulated control (without R1881), and 0% corresponded to the effect of the stimulated control (R1881 plus DMSO instead of test substance). The IC50 value was determined by regression analysis based on a four-parameter equation (minimum, maximum, IC50, Hill coefficient; Y=Max+(Min−Max)/(1+(X/IC50)^Hill)).
On the technique in general: Resazurin is reduced to fluorescent resorufin, in cell work by metabolically active cells.

The target in assay [3] is human androgen receptor (full length, wild-type form) (Homo sapiens (Human), UniProt P10275). Briefly: Transactivation assay for the wild-type androgen receptor (PC-3 cells, MMTV-luciferase reporter). As to conditions: in the presence of R1881, 16 hours. The source says:
For determining the androgen receptor-dependent transcription, a cellular assay system was used, consisting of PC-3 cells (Kaighn et al., Invest. Urol. 17: 16-23, 1979), which express the human androgen receptor stably and recombinantly (full length, wild-type form, see Swiss-Prot Acc. No. P10275, Entry Version 159, Sequence Version 2). In addition, these PC3 cells contain a stably integrated reporter gene plasmid, which is based on the commercially available plasmid pGL4.14 (#E6691, Promega Corporation, Madison, Wis., USA) and contains the luciferase gene from the American firefly (Photinus pyralis) under the control of the MMTV promoter (Cato et al., EMBO J. 6: 363-368, 1987). These cells were propagated in routine cell culture at 37° C. and 5% CO2 in a medium containing 90% RPMI 1640 (Invitrogen GmbH, Darmstadt, Germany), 100 U penicillin, 100 μg/ml streptomycin (Invitrogen), 4 mM L-glutamine (Invitrogen), 10% fetal calf serum (FCS Serum Gold, PAA Laboratories GmbH, Cölbe, Germany), 600 μg/ml Geneticin (G418-sulphate, Invitrogen) and 10 μg/ml puromycin (Sigma Aldrich GmbH, Germany).
For carrying out the transactivation assays, approx. 1000 cells per well were plated out in a 384-well cell culture plate in a medium that contained activated charcoal-treated calf serum (FCS Serum Gold, PAA Laboratories) at a concentration of 5% (v/v). The test substances were added in a concentration series from 5.12×10^−12 to 1×10^−5 M in the presence of […] R1881 (methyltrienolone). The test plates were incubated overnight at 37° C. and 5% CO2. After 16 hours, 15 μl of Steady Glo Lysis and Detection reagent (E2550, Promega Corporation, Madison, Wis., USA) was added per well and the luminescence was read in a Topcount Luminometer (PerkinElmer, Waltham, Mass., USA) for 4 seconds per well. The luminescence values obtained were normalized, wherein 100% corresponded to the effect of the unstimulated control (without R1881), and 0% corresponded to the effect of the stimulated control (R1881 plus DMSO instead of test substance). The IC50 value was determined by regression analysis based on a four-parameter equation (minimum, maximum, IC50, Hill coefficient; Y=Max+(Min−Max)/(1+(X/IC50)^Hill)).
(A reporter such as luciferase makes a cellular process visible.)

Another assay relates to LNCaP cells. Briefly: Proliferation assay with LNCaP cells. The conditions noted are these: Homo sapiens, 168 h, in the presence of 1×10^−10 M R1881, seven days, AlamarBlue, read-out: IC50 LNCaP cell proliferation. The protocol:
LNCaP cells (Horoszewicz et al., in “Models for Prostate Cancer” (ed. G. P. Murphy), Alan R. Liss, New York 1981, p. 115-132; Horoszewicz et al., Cancer Res. 43: 1809-1818, 1983) were plated out at a density of 2000 cells per well of a 96-well cell culture plate in RMPI 1640 medium (F1275, Biochrom AG), which contained activated charcoal-treated calf serum (FCS Serum Gold, PAA Laboratories) at a concentration of 5% (v/v). Three days later the cells were treated with the test substances in concentrations from 1×10^−8 to 1×10^−10 M in the presence of 1×10^−10 M R1881. Cell proliferation was determined seven days later after incubation for 2 hours with AlamarBlue (DAL1100, Invitrogen) (Nakayama et al., J Immunol Methods, 204(2): 205-8, 1997). The fluorescence values obtained were normalized, wherein 100% corresponded to the effect of the unstimulated control (without R1881), and 0% corresponded to the effect of the stimulated control (R1881 plus DMSO instead of test substance). The IC50 value was determined by regression analysis based on a four-parameter equation (minimum, maximum, IC50, Hill coefficient; Y=Max+(Min−Max)/(1+(X/IC50)^Hill)).

Molecules are shown by their SMILES. pIC50: −log10 of the molar value.

androgen receptor mutant W741C, sequence (P10275 whole entry W742C): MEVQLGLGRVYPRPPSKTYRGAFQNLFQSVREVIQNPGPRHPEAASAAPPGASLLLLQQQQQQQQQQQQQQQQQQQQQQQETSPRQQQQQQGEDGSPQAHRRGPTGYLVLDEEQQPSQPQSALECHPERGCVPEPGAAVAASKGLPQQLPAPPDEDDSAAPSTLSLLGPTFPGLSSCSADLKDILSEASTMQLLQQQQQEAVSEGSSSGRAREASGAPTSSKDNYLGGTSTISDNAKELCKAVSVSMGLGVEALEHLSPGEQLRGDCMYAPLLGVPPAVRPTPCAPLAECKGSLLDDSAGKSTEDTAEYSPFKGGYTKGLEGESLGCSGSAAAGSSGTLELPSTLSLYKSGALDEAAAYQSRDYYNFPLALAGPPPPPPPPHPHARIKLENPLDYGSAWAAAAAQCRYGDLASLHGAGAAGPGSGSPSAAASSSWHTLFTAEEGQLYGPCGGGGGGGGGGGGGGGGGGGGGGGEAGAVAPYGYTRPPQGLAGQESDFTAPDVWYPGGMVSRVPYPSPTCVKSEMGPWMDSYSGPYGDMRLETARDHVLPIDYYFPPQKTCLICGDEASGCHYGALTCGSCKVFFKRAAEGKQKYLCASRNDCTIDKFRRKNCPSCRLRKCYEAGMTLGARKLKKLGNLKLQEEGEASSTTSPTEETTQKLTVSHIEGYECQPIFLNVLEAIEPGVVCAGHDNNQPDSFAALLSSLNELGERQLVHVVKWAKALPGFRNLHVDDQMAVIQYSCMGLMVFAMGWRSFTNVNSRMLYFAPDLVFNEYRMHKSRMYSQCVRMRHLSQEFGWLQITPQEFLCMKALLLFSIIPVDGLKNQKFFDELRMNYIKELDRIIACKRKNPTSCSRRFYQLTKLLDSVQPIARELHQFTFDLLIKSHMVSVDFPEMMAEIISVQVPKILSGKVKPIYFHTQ
androgen receptor mutant E709Y, sequence (P10275 whole entry E710Y): as the sequence (P10275 whole entry W742C) above, with E710Y, C742W counted along it
human androgen receptor (full length, wild-type form), sequence (P10275 whole entry): as the sequence (P10275 whole entry W742C) above, with C742W counted along it

Take `O=C(NC[C@H]1CC[C@H](Oc2ccnc3ccccc23)CC1)c1ccc(F)c(F)c1` [Example 9, N-{[trans-4-(4-quinolyloxy)cyclohexyl]methyl}-3,4-difluorobenzamide]: the pIC50 was 7.14 in assay [1], 7.25 in assay [2], 7.35 with LAPC-4 cells and 6.98 in assay [3].

`O=C(NC[C@H]1CC[C@H](Oc2ccnc3ccccc23)CC1)c1cccc(F)c1` [Example 10, N-{[trans-4-(4-quinolyloxy)cyclohexyl]methyl}-3-fluorobenzamide]: the pIC50 is 6.66 in assay [1], 6.76 in assay [2], 6.89 with LAPC-4 cells and 6.71 in assay [3].

Regarding `Cc1cc(C(=O)NC[C@H]2CC[C@H](Oc3ccnc4ccccc34)CC2)no1` [Example 11, N-{[trans-4-(4-quinolyloxy)cyclohexyl]methyl}-5-methylisoxazole-3-carboxamide], the pIC50 in the assay on LNCaP cells is 6.59; in the assay on LAPC-4 cells it was 6.93; in assay [3], 6.68.

Turning to `O=C(N[C@H]1CC[C@H](Oc2ccnc3ccccc23)CC1)c1cccc(F)c1` [Example 19, N-{trans-4-(4-quinolyloxy)cyclohexyl}-3-fluorobenzamide], the pIC50 in the assay on LNCaP cells is 6.96; with LAPC-4 cells it was 7.32; in assay [3], 7.49.

For the compound `N#Cc1cccc2c(O[C@H]3CC[C@H](NC(=O)c4ccc(F)c(F)c4)CC3)ccnc12` [Example 24, N-{trans-4-[(8-cyanoquinolin-4-yl)oxy]cyclohexyl}-3,4-difluorobenzamide], the pIC50 in assay [1] is 7.14; in assay [2] it was 7.85; in assay [3], 7.04.
